The NIST ThermoML archive (doi:10.1021/je101178u)
Several values for one entry are separate records, joined by “and”; a condition that tells them apart may be missing. Identical values can stand only once.

Conditions: 307.15 K, Fluid (supercritical or subcritical phases); for viscosity: vibrating wire; for mass density: Buoyancy - hydrostatic balance with magnetic suspension - one sinker

CC [ethane]
Conditions | mass density | viscosity
5348.1 kPa | – | 0.03109 mPa·s
5348.3 kPa | 282.116 kg/m3 | 0.03109 mPa·s
5348.5 kPa | 282.128 kg/m3 | 0.0311 mPa·s
5348.6 kPa | 282.136 kg/m3 | 0.0311 mPa·s
5367.9 kPa | 283.622 kg/m3 | 0.0314 mPa·s
5368.5 kPa | 283.666 kg/m3 | 0.0314 mPa·s
5369.1 kPa | 283.708 kg/m3 | 0.03144 mPa·s
5369.4 kPa | 283.73 kg/m3 | 0.03141 mPa·s
5648.1 kPa | 299.179 kg/m3 | 0.03389 mPa·s
5648.3 kPa | 299.189 kg/m3 | 0.03388 mPa·s
5648.7 kPa | 299.204 kg/m3 | 0.03392 mPa·s
5648.8 kPa | 299.208 kg/m3 | 0.03391 mPa·s
5673.9 kPa | 300.263 kg/m3 and 300.265 kg/m3 | 0.0342 mPa·s and 0.03418 mPa·s
5674 kPa | 300.27 kg/m3 | 0.03416 mPa·s
5674.2 kPa | 300.276 kg/m3 | 0.03417 mPa·s
6326.2 kPa | 319.788 kg/m3 | 0.03773 mPa·s
6328.2 kPa | 319.833 kg/m3 | 0.03774 mPa·s
6328.5 kPa | 319.84 kg/m3 | 0.03772 mPa·s
6328.9 kPa | 319.85 kg/m3 | 0.03776 mPa·s
6343.9 kPa | 320.187 kg/m3 | 0.03781 mPa·s
6344.7 kPa | 320.206 kg/m3 | 0.03783 mPa·s
6346 kPa | 320.235 kg/m3 | 0.03784 mPa·s
6347.2 kPa | 320.26 kg/m3 | 0.03783 mPa·s
7598.2 kPa | 341.1 kg/m3 | 0.04226 mPa·s
7602.2 kPa | 341.152 kg/m3 | 0.0423 mPa·s
7603 kPa | 341.162 kg/m3 | 0.0423 mPa·s
7700.1 kPa | 342.393 kg/m3 | 0.04256 mPa·s
7700.8 kPa | 342.402 kg/m3 | 0.04257 mPa·s
7701.7 kPa | 342.413 kg/m3 | 0.04257 mPa·s
9627.4 kPa | 361.481 kg/m3 | 0.04726 mPa·s
9628.1 kPa | 361.486 kg/m3 | 0.04728 mPa·s
9703.1 kPa | 362.086 kg/m3 | 0.04743 mPa·s
9703.6 kPa | 362.09 kg/m3 | 0.04742 mPa·s
9705 kPa | 362.101 kg/m3 | 0.04738 mPa·s
12507 kPa | 380.383 kg/m3 | 0.05257 mPa·s
12508 kPa | 380.388 kg/m3 | 0.05257 mPa·s
12509 kPa | 380.392 kg/m3 | 0.05255 mPa·s
12544 kPa | 380.585 kg/m3 | 0.05276 mPa·s
12545 kPa | 380.588 kg/m3 | 0.05268 mPa·s
12549 kPa | 380.613 kg/m3 | 0.05262 mPa·s
12554 kPa | 380.638 kg/m3 | 0.05258 mPa·s and 0.0526 mPa·s
12558 kPa | 380.661 kg/m3 | 0.05263 mPa·s
12559 kPa | 380.663 kg/m3 | 0.05263 mPa·s
15941 kPa | 396.414 kg/m3 | 0.05768 mPa·s
15981 kPa | 396.579 kg/m3 | 0.05768 mPa·s
15985 kPa | 396.595 kg/m3 | 0.05765 mPa·s
15986 kPa | 396.599 kg/m3 | 0.05767 mPa·s
15987 kPa | 396.601 kg/m3 | 0.05769 mPa·s
16874 kPa | 400.063 kg/m3 and 400.065 kg/m3 | 0.05888 mPa·s and 0.05882 mPa·s
16875 kPa | 400.066 kg/m3 and 400.067 kg/m3 and 400.068 kg/m3 | 0.05887 mPa·s [middle of 4 runs]
16876 kPa | 400.071 kg/m3 and 400.073 kg/m3 | 0.05885 mPa·s
16877 kPa | 400.075 kg/m3 | 0.05884 mPa·s
19746 kPa | 410.021 kg/m3 and 410.023 kg/m3 | 0.06238 mPa·s and 0.06241 mPa·s
19749 kPa | 410.03 kg/m3 | 0.06236 mPa·s
19750 kPa | 410.034 kg/m3 | 0.06242 mPa·s
19751 kPa | 410.039 kg/m3 | 0.0624 mPa·s
23209 kPa | 420.154 kg/m3 | 0.06633 mPa·s
23210 kPa | 420.157 kg/m3 and 420.156 kg/m3 | 0.06633 mPa·s and 0.0663 mPa·s and 0.06634 mPa·s
24530 kPa | 423.617 kg/m3 and 423.615 kg/m3 | 0.06776 mPa·s and 0.06778 mPa·s and 0.06781 mPa·s
24531 kPa | 423.619 kg/m3 | 0.06774 mPa·s and 0.06775 mPa·s
25875 kPa | 426.955 kg/m3 | 0.06913 mPa·s
25877 kPa | 426.961 kg/m3 | 0.06914 mPa·s
25879 kPa | 426.966 kg/m3 | 0.06906 mPa·s
25881 kPa | 426.969 kg/m3 | 0.06911 mPa·s
29053 kPa | 434.215 kg/m3 | 0.07235 mPa·s
29057 kPa | 434.225 kg/m3 | 0.07232 mPa·s
29063 kPa | 434.238 kg/m3 | –
